Measurements reported in patent publication US20260295053A1, “COMPOUNDS FOR DEGRADATION AND INHIBITION OF KRAS (G12D) PROTEIN” (Shenzhen Ionova Life Science Co., Ltd., priority 2023, published 2026).

Target: T1, KRAS (G12D) (Homo sapiens, UniProt P01116, G12D)
T1 construct: in-cell western with KRAS G12D antibody after 24 h
Assay: KRAS (G12D) cellular degradation assay in AsPC-1 cells
Assay type: cell-based
Conditions: 24 hours, antibody fluorescence (Odyssey CLX), DC50 half-maximal degradation concentration
Description: ASPC-1 and PK-59 cellular assays ASPC-1 (ATCC cat. CRL-1682) and PK-59 (Nanjing Cobioer, Cat. No. CBP61184) were used in KRAS cellular degradation, pERK inhibition and proliferation assays. The two cell lines were maintained following vendor's instructions. For monitoring KRAS (G12D) cellular degradation and pERK biomarker inhibition, cells were seeded into a 96-well plate with 22,000 and 16,000 cells/well for assays in ASPC-1 and PK-59, respectively. Cells were incubated at 37° C. with 5% CO2 and cell density was monitored until ^~90% confluency was reached. Compounds were serially diluted at a 1:3 ratio and dispensed into each well at final concentrations ranging from […] to 1.5 nM. After incubation for 24 hours, the culture media were removed and the cells were subjected to fixation, permeabilization and blocking (Intercept blocking buffer, Li-cor). For KRAS (G12D) degradation, the cells were treated with primary antibody (KRAS G12D antibody, Cell Signaling Technologies, Cat. No. CST14429) and for β-actin (β-actin mAb, Beyotime, Cat. No. AF-5001), and followed by secondary antibodies, Anti-rabbit IgG (H+L) (DyLight™ 800 4×PEG Conjugate) or IRDye® 680RD Goat anti-Mouse IgG. For pERK inhibition assay, cells were treated with primary antibodies for pERK (Phospho-p44/42 MAPK (Erk1/2) (Thr202/Tyr204) (D13.14.4E) XP® Rabbit mAb, Cell Signaling Technologies, Cat. No. CST-4370) and β-actin (β-actin mAb, Beyotime, Cat. No. AF-5001), and followed by secondary antibodies, Anti-rabbit IgG (H+L) (DyLight™ 800 4×PEG Conjugate) or IRDye® 680RD Goat anti-Mouse IgG. Fluorescence signals were read on Odyssey CLX instrument. For cell proliferation assays, cells were seeded into a 96-well plate at 3,500 and 800 cells/well for assays in ASPC-1 and PK-59, respectively. Cells were incubated at 37° C. with 5% CO2 for overnight. Compounds were serially diluted at a 1:3 ratio and dispensed into each well at final concentrations ranging from […] to 1.5 nM. After incubation for 6 days, cell viability reagent (CellTiter Glo, Promega, Cat. No. G7573) was added to each well and luminescence was recorded on Molecular Devices Spectramax iD3 instrument. IC50, half-maximal inhibitory concentration for pERK inhibition or cell proliferation, and DC50, half-maximal degradation concentration in KRAS (G12D) cellular degradation were determined by fitting the corresponding dose response curves using GraphPad Prism software.
Wherein “A” means the value <10 nM, “B” means 10 nM<the value <100 nM, “C” means 100 nM<the value <1000 nM, and “D” means the value >1000 nM, in which, the value means the value of DC50 or IC50. NT means not tested.

T1 sequence (P01116 1-188 isoform P01116-2 G12D): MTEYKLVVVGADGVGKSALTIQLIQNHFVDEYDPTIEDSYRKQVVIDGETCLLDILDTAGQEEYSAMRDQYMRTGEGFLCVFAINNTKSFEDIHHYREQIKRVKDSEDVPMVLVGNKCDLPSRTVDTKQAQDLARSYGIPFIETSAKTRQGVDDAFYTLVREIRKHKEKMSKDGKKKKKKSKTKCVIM

| SMILES | DC50 [nM] |
| --- | --- |
| CCn1ncc2cccc(C#C[C@H](CO)NC(=O)[C@@H]3C[C@@H](O)CN3C(=O)[C@H](C(C)C)n3cc(-c4ccc(COc5c(-c6c(C)c(F)cc7[nH]ncc67)c(C6CC6)cc6c(N7C[C@@H]8C[C@H]7CN8)nc(O[C@H]7C[C@H](OC)C7)nc56)cc4)nn3)c21 [Example 172, (2S,4R)-1-((2S)-2-(4-(4-(((4-((1S,4S)-2,5-diazabicyclo[2.2.1]heptan-2-yl)-6-cyclopropyl-7-(6-fluoro-5-methyl-1H-indazol-4-yl)-2-((1r,3S)-3-methoxycyclobutoxy)quinazolin-8-yl)oxy)methyl)phenyl)-1H-1,2,3-triazol-1-yl)-3-methylbutanoyl)-N—((R)-4-(1-ethyl-1H-indazol-7-yl)-1-hydroxybut-3-yn-2-yl)-4-hydroxypyrrolidine-2-carboxamide] | 10 to 100 |
| CCn1nccc1-c1ccc([C@H](CO)NC(=O)[C@@H]2C[C@@H](O)CN2C(=O)[C@H](C(C)C)n2cc(-c3ccc(COc4c(-c5c(C)c(F)cc6[nH]ncc56)c(C5CC5)cc5c(N6CC7CCC(C6)N7)nc(OC[C@H](C)OC)nc45)cc3)nn2)cc1 (single isomer, unassigned) [Example 13B] | > 1000 |
| CO[C@@H](C)COc1nc(N2C[C@H]3C[C@@H]2CN3)c2cc(C3CC3)c(-c3c(C)c(F)cc4n[nH]cc34)c(OCc3ccc(-c4cn([C@H](C(=O)N5C[C@H](O)C[C@H]5C(=O)N[C@@H](CO)c5ccc(-c6c(C)noc6C)cc5)C(C)C)nn4)cc3)c2n1 (single isomer, unassigned) [Example 6B] | > 1000 |
| CO[C@@H](C)COc1nc(N(C)[C@H]2CCNC2)c2cc(C3CC3)c(-c3c(C)c(F)c(F)c4[nH]ncc34)c(OCc3ccc(-c4cn([C@H](C(=O)N5C[C@H](O)C[C@H]5C(=O)N[C@H](c5ccc(-c6scnc6C)cc5)C(C)O)C(C)C)nn4)cc3)c2n1 (stereo in doubt) [Example 145, (2S,4R)-1-((2S)-2-(4-(4-(((6-cyclopropyl-7-(6,7-difluoro-5-methyl-1H-indazol-4-yl)-2-((S)-2-methoxypropoxy)-4-(methyl((S)-pyrrolidin-3-yl)amino)quinazolin-8-yl)oxy)methyl)phenyl)-1H-1,2,3-triazol-1-yl)-3-methylbutanoyl)-4-hydroxy-N-((1R,2R)-2-hydroxy-1-(4-(4-methylthiazol-5-yl)phenyl)propyl)pyrrolidine-2-carboxamide] | < 10 |
| CCn1nccc1-c1ccc([C@@H](NC(=O)[C@@H]2C[C@@H](O)CN2C(=O)[C@H](C(C)C)n2cc(-c3ccc(COc4c(-c5c(C)c(F)cc6[nH]ncc56)c(C5CC5)cc5c(N(C)[C@H]6CCNC6)nc(OC[C@H]6CCCO6)nc45)cc3)nn2)[C@H](C)O)c2c1CC2 [Example 209, (2S,4R)-1-((2S)-2-(4-(4-(((6-cyclopropyl-7-(6-fluoro-5-methyl-1H-indazol-4-yl)-4-(methyl((S)-pyrrolidin-3-yl)amino)-2-(((R)-tetrahydrofuran-2-yl)methoxy)quinazolin-8-yl)oxy)methyl)phenyl)-1H-1,2,3-triazol-1-yl)-3-methylbutanoyl)-N-((1R,2S)-1-(5-(1-ethyl-1H-pyrazol-5-yl)bicyclo[4.2.0]octa-1(6),2,4-trien-2-yl)-2-hydroxypropyl)-4-hydroxypyrrolidine-2-carboxamide] | < 10 |
| CCn1nccc1-c1ccc([C@H](CO)NC(=O)[C@@H]2C[C@@H](O)CN2C(=O)[C@H](C(C)C)n2cc(-c3ccc(COc4c(-c5c(C)c(F)cc6[nH]ncc56)c(C5CC5)cc5c(N6CCNCC[C@@H]6C)nc(OC[C@H](C)OC)nc45)cc3)nn2)cc1 [Example 183, (2S,4R)-1-((2S)-2-(4-(4-(((6-cyclopropyl-7-(6-fluoro-5-methyl-1H-indazol-4-yl)-2-((S)-2-methoxypropoxy)-4-((S)-7-methyl-1,4-diazepan-1-yl)quinazolin-8-yl)oxy)methyl)phenyl)-1H-1,2,3-triazol-1-yl)-3-methylbutanoyl)-N—((R)-1-(4-(1-ethyl-1H-pyrazol-5-yl)phenyl)-2-hydroxyethyl)-4-hydroxypyrrolidine-2-carboxamide] | 10 to 100 |
| CCn1nccc1-c1ccc([C@H](CO)NC(=O)[C@@H]2C[C@@H](O)CN2C(=O)[C@H](C(C)C)n2cc(-c3ccc(COc4c(-c5c(C)c(F)c(F)c6[nH]ncc56)c(C5CC5)cc5c(N6C[C@@H]7C[C@H]6CN7)nc(OC6CCC7(CC6)COC7)nc45)cc3)nn2)cc1 [Example 110, (2S,4R)-1-((2S)-2-(4-(4-(((2-((2-oxaspiro[3.5]nonan-7-yl)oxy)-4-((1S,4S)-2,5-diazabicyclo[2.2.1]heptan-2-yl)-6-cyclopropyl-7-(6,7-difluoro-5-methyl-1H-indazol-4-yl)quinazolin-8-yl)oxy)methyl)phenyl)-1H-1,2,3-triazol-1-yl)-3-methylbutanoyl)-N—((R)-1-(4-(1-ethyl-1H-pyrazol-5-yl)phenyl)-2-hydroxyethyl)-4-hydroxypyrrolidine-2-carboxamide] | < 10 |
| CCn1ncc2c(C#C[C@H](CO)NC(=O)[C@@H]3C[C@@H](O)CN3C(=O)[C@H](C(C)C)n3cc(-c4ccc(COc5c(-c6c(C)c(F)cc7[nH]ncc67)c(C6CC6)cc6c(N7C[C@@H]8C[C@H]7CN8)nc(O[C@H]7C[C@@H](OC)C7)nc56)cc4)nn3)cccc21 [Example 163, (2S,4R)-1-((2S)-2-(4-(4-(((4-((1S,4S)-2,5-diazabicyclo[2.2.1]heptan-2-yl)-6-cyclopropyl-2-((1r,3R)-3-methoxycyclobutoxy)-7-(6-fluoro-5-methyl-1H-indazol-4-yl)quinazolin-8-yl)oxy)methyl)phenyl)-1H-1,2,3-triazol-1-yl)-3-methylbutanoyl)-N—((R)-4-(1-ethyl-1H-indazol-4-yl)-1-hydroxybut-3-yn-2-yl)-4-hydroxypyrrolidine-2-carboxamide] | 10 to 100 |
| Cc1ncsc1-c1ccc([C@H](CO)NC(=O)[C@@H]2C[C@@H](O)CN2C(=O)[C@H](C(C)C)n2cc(-c3ccc(COc4c(-c5c(C)c(F)c(F)c6[nH]ncc56)c(C5CCC5)cc5c(N6C[C@@H]7C[C@H]6CN7)nc(OC6CCOCC6)nc45)cc3)nn2)cc1 [Example 120, (2S,4R)-1-((2S)-2-(4-(4-(((4-((1S,4S)-2,5-diazabicyclo[2.2.1]heptan-2-yl)-6-cyclobutyl-7-(6,7-difluoro-5-methyl-1H-indazol-4-yl)-2-((tetrahydro-2H-pyran-4-yl)oxy)quinazolin-8-yl)oxy)methyl)phenyl)-1H-1,2,3-triazol-1-yl)-3-methylbutanoyl)-4-hydroxy-N—((R)-2-hydroxy-1-(4-(4-methylthiazol-5-yl)phenyl)ethyl)pyrrolidine-2-carboxamide] | 10 to 100 |
| CCn1nccc1-c1ccc([C@H](CO)NC(=O)[C@@H]2C[C@@H](O)CN2C(=O)[C@H](C(C)C)n2cc(-c3ccc(COc4c(-c5c(C)c(F)cc6[nH]ncc56)c(C5CC5)cc5c(N6CCC(N)CC6)nc(OC[C@H](C)OC)nc45)cc3)nn2)cc1 [Example 225, (2S,4R)-1-((2S)-2-(4-(4-(((4-(4-aminopiperidin-1-yl)-6-cyclopropyl-7-(6-fluoro-5-methyl-1H-indazol-4-yl)-2-((S)-2-methoxypropoxy)quinazolin-8-yl)oxy)methyl)phenyl)-1H-1,2,3-triazol-1-yl)-3-methylbutanoyl)-N—((R)-1-(4-(1-ethyl-1H-pyrazol-5-yl)phenyl)-2-hydroxyethyl)-4-hydroxypyrrolidine-2-carboxamide] | < 10 |
| Cc1ncsc1-c1ccc([C@H](CO)NC(=O)[C@@H]2C[C@@H](O)CN2C(=O)[C@H](C(C)C)n2cc(-c3ccc(COc4c(-c5c(C)c(F)cc6[nH]ncc56)c(C5CC5)cc5c(N6CCCNCC6)nc(OC[C@H]6CCCO6)nc45)cc3)nn2)cc1 [Example 213, (2S,4R)-1-((2S)-2-(4-(4-(((6-cyclopropyl-4-(1,4-diazepan-1-yl)-7-(6-fluoro-5-methyl-1H-indazol-4-yl)-2-(((R)-tetrahydrofuran-2-yl)methoxy)quinazolin-8-yl)oxy)methyl)phenyl)-1H-1,2,3-triazol-1-yl)-3-methylbutanoyl)-4-hydroxy-N—((R)-2-hydroxy-1-(4-(4-methylthiazol-5-yl)phenyl)ethyl)pyrrolidine-2-carboxamide] | < 10 |
| CCn1nccc1-c1ccc(CNC(=O)[C@@H]2C[C@@H](O)CN2C(=O)[C@H](C(C)C)n2cc(-c3ccc(COc4c(-c5c(C)c(F)cc6[nH]ncc56)c(C5CC5)cc5c(N6C[C@H]7C[C@@H]6CN7)nc(OC[C@H](C)OC)nc45)cc3)nn2)cc1 (single isomer, unassigned) [Example 7B] | > 1000 |
